Experimental data as given in ChEMBL document CHEMBL4052774, “Design, synthesis, molecular modeling and anti-hyperglycemic evaluation of quinazolin-4(3H)-one derivatives as potential PPARγ and SUR agonists” (Bioorg Med Chem, 2017).

Key:
[1] = Agonist activity at SUR in Wistar rat pancreatic islets assessed as increase in insulin secretion at 5 to 20 uM incubated for 1 hr followed by glucose addition for 30 mins by quantitative sandwich enzyme immunoassay
[2] = target: T1, Peroxisome proliferator-activated receptor gamma (Homo sapiens, UniProt P37231); assay: Displacement of fluormone-PPARgamma green from GST-tagged PPARgamma-LBD (unknown origin) by fluorescence polarization assay
T1 sequence (P37231 whole entry): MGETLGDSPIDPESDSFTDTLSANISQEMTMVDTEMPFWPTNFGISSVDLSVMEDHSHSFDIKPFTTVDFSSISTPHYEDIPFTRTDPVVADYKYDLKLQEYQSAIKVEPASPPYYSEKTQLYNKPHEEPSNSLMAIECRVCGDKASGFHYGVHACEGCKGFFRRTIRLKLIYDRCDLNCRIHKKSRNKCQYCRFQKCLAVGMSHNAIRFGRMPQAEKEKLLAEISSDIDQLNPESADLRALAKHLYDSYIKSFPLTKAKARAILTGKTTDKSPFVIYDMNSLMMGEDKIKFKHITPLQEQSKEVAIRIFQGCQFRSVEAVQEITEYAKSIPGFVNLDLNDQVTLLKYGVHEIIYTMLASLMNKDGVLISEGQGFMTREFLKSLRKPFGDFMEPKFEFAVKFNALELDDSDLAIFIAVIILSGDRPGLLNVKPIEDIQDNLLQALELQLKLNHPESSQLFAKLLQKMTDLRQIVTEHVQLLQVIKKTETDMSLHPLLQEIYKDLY

Rattus norvegicus = assay: Antihyperglycemic activity in streptozotocin-induced diabetic Swiss albino rat assessed as decrease in blood glucose level at 20 mg/kg, po measured up to 3 hrs post dose relative to control; type: functional; parameters: scale not given: the % may be the effect or the level left

IC50 ([2]; read-out: IC50) [µM] | Structure (SMILES) | EC50 [1] [nM] | Activity (Rattus norvegicus) [%] | IC50 [2]
– | CCC1=C(C)CN(C(=O)NCCc2ccc(S(=O)(=O)NC(=O)N[C@H]3CC[C@H](C)CC3)cc2)C1=O [GLIMEPIRIDE] | 790 | – | –
2.39 | O=C(NC1CCCCC1)NS(=O)(=O)c1ccc(CCNS(=O)(=O)c2ccc(Br)cc2)cc1 | – | – | –
4 | Cc1nc2ccccc2n(CC(=O)Nc2ccc(S(=O)(=O)NC(=S)NC3CCCCC3)cc2)c1=O | – | – | –
– | Cc1nc2ccc(Br)cc2c(=O)n1CC(=O)Nc1ccc(S(=O)(=O)NC(=O)Nc2ccccc2)cc1 | – | 21.33 | –
4 | CCCCNC(=S)NS(=O)(=O)c1ccc(NC(=O)Cn2c(=O)c(C)nc3ccccc32)cc1 | – | – | –
33.3 | COc1ccc(NC(=S)NS(=O)(=O)c2ccc(CCNS(=O)(=O)c3ccc(Cl)cc3)cc2)cc1 | – | – | –
1000 | COc1ccc(NC(=S)NS(=O)(=O)c2ccc(CCNS(=O)(=O)c3ccccc3)cc2)cc1 | – | – | –
1.6 | CC1CCC(NC(=O)NS(=O)(=O)c2ccc(CCNS(=O)(=O)c3ccc(Br)cc3)cc2)CC1 (configuration not stated) | – | – | –
7.14 | CC(=O)Nc1ccc(S(=O)(=O)NCCc2ccc(S(=O)(=O)NC(=O)NC3CCC(C)CC3)cc2)cc1 (configuration not stated) | – | – | –
50 | Cc1ccc(NC(=S)NS(=O)(=O)c2ccc(CCNS(=O)(=O)c3ccccc3)cc2)cc1 | – | – | –
33.3 | O=S(=O)(NCCc1ccc(S(=O)(=O)NC(=S)Nc2ccc(Cl)cc2)cc1)c1ccc(Cl)cc1 | – | – | –
12.5 | O=C(NC1CCCCC1)NS(=O)(=O)c1ccc(CCNS(=O)(=O)c2ccccc2)cc1 | – | – | –
– | Cc1ccc(S(=O)(=O)NCCc2ccc(S(=O)(=O)NC(=S)Nc3ccc(Cl)cc3)cc2)cc1 | – | – | Not Active
– | Cc1ccc(NC(=S)NS(=O)(=O)c2ccc(CCNS(=O)(=O)c3ccc(C)cc3)cc2)cc1 | – | – | Not Active
– | COc1ccc(-n2c(SCC(=O)Nc3ccc(S(=O)(=O)NC(=O)Nc4ccccc4)cc3)nc3ccccc3c2=O)cc1 | – | 24.58 | –
– | CCCCNC(=O)NS(=O)(=O)c1ccc(NC(=O)Cn2c(C)nc3ccc(Br)cc3c2=O)cc1 | – | 28.25 | –
4 | CCCCNC(=O)NS(=O)(=O)c1ccc(NC(=O)Cn2c(=O)c(C)nc3ccccc32)cc1 | – | – | –
– | Cc1nc2ccccc2c(=O)n1CC(=O)Nc1ccc(S(=O)(=O)NC(=O)Nc2ccccc2)cc1 | – | 19.66 | –
– | COc1ccc(NC(=S)NS(=O)(=O)c2ccc(CCNS(=O)(=O)c3ccc(C)cc3)cc2)cc1 | – | – | Not Active
3.1 | O=C(NC1CCCCC1)NS(=O)(=O)c1ccc(CCNS(=O)(=O)c2ccc(Cl)cc2)cc1 | – | – | –
33.3 | O=S(=O)(NCCc1ccc(S(=O)(=O)NC(=S)Nc2ccc(Cl)cc2)cc1)c1ccccc1 | – | – | –
2.4 | CC(=O)Nc1ccc(S(=O)(=O)NCCc2ccc(S(=O)(=O)NC(=O)NC3CCC(C)CC3)cc2)cc1C (configuration not stated) | – | – | –
4 | Cc1nc2ccccc2n(CC(=O)Nc2ccc(S(=O)(=O)NC(=S)Nc3ccccc3)cc2)c1=O | – | – | –
4 | Cc1nc2ccccc2n(CC(=O)Nc2ccc(S(=O)(=O)NC(=O)Nc3ccccc3)cc2)c1=O | – | – | –
3.4 | CC1CCC(NC(=O)NS(=O)(=O)c2ccc(CCNS(=O)(=O)c3ccccc3)cc2)CC1 (configuration not stated) | – | – | –
4 | Cc1nc2ccccc2n(CC(=O)Nc2ccc(S(=O)(=O)NC(=O)NC3CCCCC3)cc2)c1=O | – | – | –
– | CCc1nc2ccccc2c(=O)n1CC(=O)Nc1ccc(S(=O)(=O)NC(=O)Nc2ccccc2)cc1 | – | 21.55 | –

Structure (SMILES) | IC50 ([2]; read-out: IC50) [µM] | EC50 [1] [nM] | Activity (Rattus norvegicus) [%] | IC50 [2]
Cc1ccc(-n2c(SCC(=O)Nc3ccc(S(=O)(=O)NC(=O)NC4CCCCC4)cc3)nc3ccccc3c2=O)cc1 | 0.402 | 1310 | 40.43 | –
Cc1nc2ccccc2c(=O)n1CC(=O)Nc1ccc(S(=O)(=O)NC(=O)NC2CCCCC2)cc1 | 0.464 | 2690 | 38.64 | –
CCCCNC(=O)NS(=O)(=O)c1ccc(NC(=O)CSc2nc3ccccc3c(=O)n2-c2ccc(C)cc2)cc1 | 0.434 | 1530 | 37.76 | –
COc1ccc(-n2c(SCC(=O)Nc3ccc(S(=O)(=O)NC(=O)NC4CCCCC4)cc3)nc3ccccc3c2=O)cc1 | 0.35 | 970 | 46.42 | –
Cc1nc2ccc(Br)cc2c(=O)n1CC(=O)Nc1ccc(S(=O)(=O)NC(=O)NC2CCCCC2)cc1 | 0.353 | 1680 | 42.5 | –
Cc1ccc(-n2c(SCC(=O)Nc3ccc(S(=O)(=O)NC(=O)Nc4ccccc4)cc3)nc3ccccc3c2=O)cc1 | 0.371 | 3090 | 33.42 | –
CCCCNC(=O)NS(=O)(=O)c1ccc(NC(=O)CSc2nc3ccccc3c(=O)n2-c2ccc(OC)cc2)cc1 | 0.369 | 1010 | 41.23 | –
CCCCNC(=O)NS(=O)(=O)c1ccc(NC(=O)Cn2c(CC)nc3ccccc3c2=O)cc1 | 0.408 | 2510 | 38.44 | –
CCc1nc2ccccc2c(=O)n1CC(=O)Nc1ccc(S(=O)(=O)NC(=O)NC2CCCCC2)cc1 | 0.59 | 1150 | 34.25 | –
CCCCNC(=O)NS(=O)(=O)c1ccc(NC(=O)Cn2c(C)nc3ccccc3c2=O)cc1 | 0.98 | 2910 | 29.22 | –
